The text below walks through data of patent publication US8871753B2, “Macrocyclic compounds and their use as kinase inhibitors” (Incyte Corporation, priority 2008, dated 2014).

What all share (assay type): biochemical
Assay [1] deals with T1, human JAK2 (a.a. 828-1132) (Homo sapiens, UniProt O60674).
T1 construct: JAK2 (a.a. 828-1132); His tag (N); made in house; host or cells: insect cells (baculovirus)
The assay can be described thus: In vitro JAK kinase assay (HTRF, phosphorylation of a biotinylated peptide), JAK2. Conditions: Table D1. The procedure, abridged:
(§1)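 Phosphorylation of a biotinylated peptide by the JAK kinase domain, detected by HTRF with Eu-Py20 and SA-APC. ATP was 90 μM for JAK1, 30 μM for JAK2 and 3 μM for JAK3. Reactions ran 1 h at room temperature and were stopped with EDTA, followed by 40 min antibody binding.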

Another assay deals with TYK2 (Homo sapiens, UniProt P29597). The assay can be described thus: TYK2 kinase inhibition (Table A1). Conditions: Table D1.
The target of assay [2] is T2, human JAK3 (a.a. 781-1124) (Homo sapiens, UniProt P52333).
T2 construct: JAK3 (a.a. 781-1124); His tag (N); made in house; host or cells: insect cells (baculovirus)
The assay can be described thus: In vitro JAK kinase assay (HTRF, phosphorylation of a biotinylated peptide), JAK3. Conditions: Table D1. The procedure, abridged:
as §1

Assay [3] concerns the target T3, human JAK1 (a.a. 837-1142) (Homo sapiens, UniProt P23458).
T3 construct: human JAK1 (a.a. 837-1142); His tag (N); made in house; host or cells: insect cells (baculovirus)
The assay can be described thus: In vitro JAK kinase assay (HTRF, phosphorylation of a biotinylated peptide), JAK1. Conditions: Table D1; read-out: JAK1 IC50. The procedure, abridged: as §1
(In TR-FRET formats the signal depends on donor and acceptor labels being close together.)

Chain of TYK2 (P29597 whole entry): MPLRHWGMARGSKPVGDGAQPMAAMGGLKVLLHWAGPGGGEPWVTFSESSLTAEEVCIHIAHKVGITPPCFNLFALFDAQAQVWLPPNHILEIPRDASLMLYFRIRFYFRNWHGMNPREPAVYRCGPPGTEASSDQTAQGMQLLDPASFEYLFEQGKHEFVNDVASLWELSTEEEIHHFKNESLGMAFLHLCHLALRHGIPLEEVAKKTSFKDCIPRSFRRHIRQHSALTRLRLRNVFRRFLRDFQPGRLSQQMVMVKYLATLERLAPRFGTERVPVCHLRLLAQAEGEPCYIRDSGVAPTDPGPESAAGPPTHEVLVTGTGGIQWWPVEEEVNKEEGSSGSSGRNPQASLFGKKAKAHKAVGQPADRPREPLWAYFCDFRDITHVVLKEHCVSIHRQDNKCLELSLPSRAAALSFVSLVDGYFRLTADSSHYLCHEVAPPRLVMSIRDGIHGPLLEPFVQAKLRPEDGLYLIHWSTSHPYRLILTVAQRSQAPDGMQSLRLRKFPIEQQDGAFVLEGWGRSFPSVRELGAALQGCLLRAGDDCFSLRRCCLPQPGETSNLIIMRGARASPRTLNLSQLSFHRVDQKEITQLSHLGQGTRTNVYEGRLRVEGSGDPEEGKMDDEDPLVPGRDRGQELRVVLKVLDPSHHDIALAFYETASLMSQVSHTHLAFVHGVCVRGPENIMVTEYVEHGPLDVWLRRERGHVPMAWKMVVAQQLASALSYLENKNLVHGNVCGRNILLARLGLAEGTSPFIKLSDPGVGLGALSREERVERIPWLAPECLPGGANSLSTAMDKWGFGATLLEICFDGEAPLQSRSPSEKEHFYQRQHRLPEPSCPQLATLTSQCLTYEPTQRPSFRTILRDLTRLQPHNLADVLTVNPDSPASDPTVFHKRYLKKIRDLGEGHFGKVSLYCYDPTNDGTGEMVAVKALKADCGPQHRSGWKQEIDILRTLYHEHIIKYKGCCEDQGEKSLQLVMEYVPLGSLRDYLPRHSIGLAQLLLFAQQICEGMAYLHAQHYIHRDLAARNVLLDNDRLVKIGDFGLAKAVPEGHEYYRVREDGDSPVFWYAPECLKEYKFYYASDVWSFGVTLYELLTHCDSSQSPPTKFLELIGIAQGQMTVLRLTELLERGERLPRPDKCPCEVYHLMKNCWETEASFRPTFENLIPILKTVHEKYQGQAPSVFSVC
T1 sequence (O60674 828-1132): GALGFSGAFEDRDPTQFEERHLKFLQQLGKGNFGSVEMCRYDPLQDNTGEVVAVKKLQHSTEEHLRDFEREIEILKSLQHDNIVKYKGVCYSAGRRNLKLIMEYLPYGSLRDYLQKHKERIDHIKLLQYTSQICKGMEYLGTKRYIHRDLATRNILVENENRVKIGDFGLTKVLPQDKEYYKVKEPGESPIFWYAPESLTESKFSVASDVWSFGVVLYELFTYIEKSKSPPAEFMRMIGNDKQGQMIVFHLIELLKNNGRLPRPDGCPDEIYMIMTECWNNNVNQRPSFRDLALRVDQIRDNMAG
T2 sequence (P52333 781-1124): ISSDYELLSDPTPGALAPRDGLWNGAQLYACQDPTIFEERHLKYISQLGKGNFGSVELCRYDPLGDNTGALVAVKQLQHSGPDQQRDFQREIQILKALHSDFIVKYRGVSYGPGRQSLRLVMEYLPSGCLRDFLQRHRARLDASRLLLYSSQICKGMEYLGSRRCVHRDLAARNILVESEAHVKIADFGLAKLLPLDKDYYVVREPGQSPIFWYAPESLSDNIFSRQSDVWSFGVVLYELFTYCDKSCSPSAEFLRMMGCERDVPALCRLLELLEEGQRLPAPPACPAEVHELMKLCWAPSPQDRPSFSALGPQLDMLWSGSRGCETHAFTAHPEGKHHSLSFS
T3 sequence (P23458 849-1154): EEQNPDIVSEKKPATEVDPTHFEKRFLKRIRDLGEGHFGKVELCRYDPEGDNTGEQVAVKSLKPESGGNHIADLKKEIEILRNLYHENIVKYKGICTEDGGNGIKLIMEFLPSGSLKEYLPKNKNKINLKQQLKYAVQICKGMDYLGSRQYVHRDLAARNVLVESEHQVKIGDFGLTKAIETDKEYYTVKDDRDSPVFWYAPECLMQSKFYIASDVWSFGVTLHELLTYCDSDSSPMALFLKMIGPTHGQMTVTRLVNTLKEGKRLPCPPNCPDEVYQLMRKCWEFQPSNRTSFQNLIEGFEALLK

A word on the IC50: it is the point on the concentration scale where inhibition reaches its midpoint. Take `O=C(Nc1ccccc1)N1CCC(COc2ccc3cc2CCc2cncc(c2)Nc2ncc(Cl)c(n2)N3)CC1` [Example D228, 4-({[6-Chloro-2,4,8,18,22-pentaazatetracyclo[14.3.1.1(3,7).1(9,13)]docosa-1(20),3(22),4,6,9(21),10,12,16,18-nonaen-12-yl]oxy}methyl)-N-phenylpiperidine-1-carboxamide bis(trifluoroacetate)]: the IC50 in assay [1] was 371 nM; against TYK2 it was greater than 400 nM; in assay [2], greater than 400 nM; in assay [3], greater than 400 nM.

Turning to `O=C(COc1ccc2cc1CCc1cncc(c1)Nc1ncc(Cl)c(n1)N2)N1CCNCC1` [Example D229, 6-Chloro-12-(2-oxo-2-piperazin-1-ylethoxy)-2,4,8,18,22-pentaazatetracyclo[14.3.1.1(3,7).1(9,13)]docosa-1(20),3(22),4,6,9(21),10,12,16,18-nonaene tris(trifluoroacetate)], the IC50 was 235 nM in assay [1], greater than 400 nM against TYK2, greater than 400 nM in assay [2] and 153 nM in assay [3].

On to `O=C(COc1ccc2cc1CCc1cncc(c1)Nc1ncc(Cl)c(n1)N2)N1CCN(c2nccs2)CC1` [Example D230, 6-Chloro-12-{2-oxo-2-[4-(1,3-thiazol-2-yl)piperazin-1-yl]ethoxy}-2,4,8,18,22-pentaazatetracyclo[14.3.1.1(3,7).1(9,13)]docosa-1(20),3(22),4,6,9(21),10,12,16,18-nonaene tris(trifluoroacetate)], for which the IC50 in assay [1] is 47 nM; against TYK2, greater than 400 nM; in assay [2], greater than 400 nM; in assay [3], 25 nM.

On to `O=C(COc1ccc2cc1CCc1cncc(c1)Nc1ncc(Cl)c(n1)N2)N1CCN(c2ccccn2)CC1` [Example D231, 6-Chloro-12-[2-oxo-2-(4-pyridin-2-ylpiperazin-1-yl)ethoxy]-2,4,8,18,22-pentaazatetracyclo[14.3.1.1(3,7).1(9,13)]docosa-1(20),3(22),4,6,9(21),10,12,16,18-nonaene tris(trifluoroacetate)], for which the IC50 in assay [1] is 217 nM; at TYK2, greater than 400 nM; in assay [2] it was greater than 400 nM; in assay [3], 52 nM.

As for `O=C(COc1ccc2cc1CCc1cncc(c1)Nc1ncc(Cl)c(n1)N2)N1CCN(c2cnccn2)CC1` [Example D232, 6-Chloro-12-[2-oxo-2-(4-pyrazin-2-ylpiperazin-1-yl)ethoxy]-2,4,8,18,22-pentaazatetracyclo[14.3.1.1(3,7).1(9,13)]docosa-1(20),3(22),4,6,9(21),10,12,16,18-nonaene tris(trifluoroacetate)], the IC50 was 160 nM in assay [1], greater than 400 nM at TYK2, greater than 400 nM in assay [2] and 32 nM in assay [3].

Take `O=C(COc1ccc2cc1CCc1cncc(c1)Nc1ncc(Cl)c(n1)N2)N1CCN(c2ncccn2)CC1` [Example D233, 6-Chloro-12-[2-oxo-2-(4-pyrimidin-2-ylpiperazin-1-yl)ethoxy]-2,4,8,18,22-pentaazatetracyclo[14.3.1.1(3,7).1(9,13)]docosa-1(20),3(22),4,6,9(21),10,12,16,18-nonaene tris(trifluoroacetate)]: the IC50 was greater than 400 nM in assay [1], greater than 400 nM on TYK2, greater than 400 nM in assay [2] and 100 nM in assay [3].

As for `O=C(COc1ccc2cc1CCc1cncc(c1)Nc1ncc(Cl)c(n1)N2)N1CCN(c2ccccc2)CC1` [Example D234, 6-Chloro-12-[2-oxo-2-(4-phenylpiperazin-1-yl)ethoxy]-2,4,8,18,22-pentaazatetracyclo[14.3.1.1(3,7).1(9,13)]docosa-1(20),3(22),4,6,9(21),10,12,16,18-nonaene tris(trifluoroacetate)], the IC50 in assay [1] was 160 nM; on TYK2, greater than 400 nM; in assay [2], greater than 400 nM; in assay [3], 41 nM.
